Earlier results, collected in patent US20070190036A1, “Microencapsulation of pancreatic islets within a thin coat of glucagon-like peptide-1 functionalized poly(ethylene glycol)” (priority 2006, published 2007).

Tested on: rat pancreatic islets
Settings: isolated rat pancreatic islets

## glucagon-like peptide 1 [GLP-1]
  concentration at which insulinotropic activity began: 2.5 nM
  concentration at which insulinotropic activity was saturated: 250 nM
